Laboratory results taken from patent publication US10730919B2, “Peptides” (APITOPE INTERNATIONAL NV, priority 2013, dated 2020).

Tested on: RNB12 specific T cells
Assay: Identification of apitopes in the RNB12 region (fresh vs fixed APCs, proliferation and IFN gamma)
Type: cell-based, human
Conditions: RNB12 specific TCL, fresh or fixed BM14 cells (FIG. 18)
Protocol: Peripheral blood monocytes (PBMC) from healthy donors or Graves' disease patients were isolated (Histopaque-1077, Sigma-Aldrich), and frozen in aliquots. At day 0, cells were thawed and 106 PBMCs/ml cultured with 20 ug/ml peptide in supplemented (10 mM HEPES, 50 U/ml Penicillin/Streptomycin and 4 mM L-Glutamine (Lonza)) RPMI 1640 (Lonza) with 5% AB serum (Sigma Aldrich) added in a 6 well plate (Greiner Bio-one) and incubated in 37 C and 5% CO2. After 7 days rhIL-2 (R&D Systems) is added to a final concentration of 20 U/ml. […]
At day 24 the cells were harvested, washed and 2×104 cultured in a 96 well round-bottom plate (Cellstar, Greiner Bio One) with […] irradiated autologous PBMCs and VAVY/BM14/MGAR human cell lines expressing human MHC cl II molecules (International Histocompatibility Working group, Seattle, US) in supplemented RPMI+5% AB serum in presence of different antigens (peptides, protein) in concentration from 5-50 ug/ml. […] After the plates been frozen the cells were harvested and read with β counter (Wallac 1450 Microbeta Trilux) to assess proliferation. […]
The supernatants from TCL cultures were assessed for IFN gamma content by use of the Human IFN-gamma Duoset kit, R&D Systems following the manufacturer's instruction. Optical density was measured at 450 nm (Tecan Benelux)

## KKKTLKLYNNGFTSVQGYKKK [RNB12-KKK]
  apitope status: confirmed to be apitopes
